Assay [1] has as its system PTX-sensitive G proteins. Briefly: mastoparan 7-stimulated [35S]GTPγS binding to isolated cell membranes from normotensives and hypertensives. The format is biochemical, human. As for the experimental part: (§1) A detailed characterization was carried out of the activation of G proteins from cells of normotensive subjects and hypertensive patients. For this purpose, the stimulated incorporation of radiolabeled [^35 S] GTPγS was quantified by the method described by Wieland et al. (Wieland, T., Liedel, K., Xaldenberg-Stasch, S., Meyer zu Heringdorf, D., Schmidt, M., and Jakobs, K. E. Analysis of receptor-G protein interactions in permeabilized cells. Naunyn-Schmiedeberg's Arch.Pharmacol. 351:329-336,1995). G Proteins were activated initially by stimulating cells which had been permeabilized with digitonin using the peptide mastoparan 7. This peptide simulates the configuration of an activated G protein-coupled receptor so that it can be used to induce direct G protein activation independent of receptors (Ross, E. M. and Higashijima, T. Regulation of G protein activation by mastoparan and other cationic peptides. Methods Enzymol. 237:27-38, 1994). The binding of GTPγS induced by MAS-7 is completely PTX-sensitive so that it can be used to quantify the activation of heterotrimeric G proteins of the Gi type. […] MAS-7 induces strong [^35 S] GTPγS binding on HT cells with an EC50 of about 5 μm (FIG. 2). Maximum binding is reached at about 25 to 50 μm MAS-7. In contrast to this, the concentration required for the same [^35 S] GTPγS binding to NT cells are [sic] 10 times higher (FIG. 2).
GTPγS to isolated cell membranes from normotensives and hypertensives. It is evident that the maximum stimulated binding of [^35 S] GTPγS to membranes from hypertensives occurs at lower concentrations of GDP (about 0.2 μmol/l), where a concentration of 1 μmol/l GDP is required for the same effect in normotensives.
In a similar way, the maximum binding, stimulated by mastoparan 7, of [^35 S] GTPγS to membrane preparations from hypertensive cells a low concentration of free Mg^2+ (about 0.01 mmol/l), while a free Mg^2+ concentration of 0.1 mmol/l is necessary for the same maximum binding of [^35 S] GTPγS to membranes from normotensive cells (FIG. 5).
For orientation: GTPγS is a poorly hydrolysed GTP analogue; its binding reports G protein activation.

Assay [2] deals with PTX-sensitive G proteins (heterotrimeric G proteins of the Gi type). Briefly: mastoparan 7-stimulated [35S]GTPγS binding to digitonin-permeabilized cells from normotensives and hypertensives. It counts as cell-based, human. As for the experimental part:
as §1
GTPγS to cell lines from normotensives (NT) and hypertensives (HT).
The binding of [^35 S] GTPγS to hypertensive cells is distinctly speeded up (rate constants 0.005 s^-1 in the normotensive versus 0.01 s^-1 in the hypertensive state).

On to `Nc1nc2c(ncn2[C@@H]2O[C@H](COP(=O)(O)OP(=O)(O)O)[C@@H](O)[C@H]2O)c(=O)[nH]1` [GDP], for which the “GDP concentration at which maximum mastoparan 7-stimulated [35S]GTPγS binding occurs” value in assay [1] (membranes from hypertensives) is recorded as “about 0.2 μmol/l”. Further, the “GDP concentration required for maximum mastoparan 7-stimulated [35S]GTPγS binding” value in assay [1] (membranes from normotensives) was 1 µmol/L.
On to `[Mg+2]` [Mg^2+], for which the “free Mg2+ concentration for maximum mastoparan 7-stimulated [35S]GTPγS binding” value in assay [1] (membrane preparations from hypertensive cells) is “about 0.01 mmol/l”; in assay [1] (membranes from normotensive cells), 0.1 mmol/L.
The term EC50 denotes the concentration that produces a half-maximal response. Turning to mastoparan 7 [MAS-7], the EC50 in assay [2] (HT (hypertensive) cells, digitonin-permeabilized, read-out: EC50 of induced [35S]GTPγS binding) was around 5 µM. Besides, the “concentration required for the same [35S]GTPγS binding to NT cells, relative to HT cells” value in assay [2] (NT (normotensive) versus HT cells) is 10 times higher. Further, the “rate constant of stimulated [35S]GTPγS binding” value was found to be 0.01 s⁻¹ in assay [2] (hypertensive state) and 0.005 s⁻¹ in assay [2] (normotensive state).

The values are drawn from patent US6251853A, “PTX sensitive G proteins, the production and use thereof” (priority 1996, dated 2001).
